For orientation: Ki means a dissociation constant, usually derived from enzyme kinetics or from competition with a known ligand. One may read the IC50 as the concentration at which inhibition is half-maximal.

This is an account of results in patent publication US20040097594A1 (priority 1998, published 2004).

The target of test [1] is HIV-1 protease (Human immunodeficiency virus type 1 group M subtype B, UniProt P04585). Nature of the test: biochemical. The settings on record: HIV-1 protease; upper line of each compound's entry; read-out: Ki (enzyme).
Test [2] concerns HIV-1 (strain IIIB). Nature of the test: microbe, parasite or virus in culture. The format is cell-based. The note with it: Human immunodeficiency virus 1, IIIB, MT4, 120 h; […]; lower line of each compound's entry; read-out: IC50 (MT-4 cells).

On to `COc1ccc(S(=O)(=O)N(C[C@@H](O)[C@H](Cc2ccccc2)NC(=O)[C@H](CC(N)=O)NC(=O)c2ccc3ccccc3n2)OC2CCOCC2)cc1` [Compound 76, (2S)-N-(1S,2R)-1-benzyl-2-hydroxy-3-[[(4-methoxyphenyl)sulfonyl](tetrahydro-2H-pyran-4-yloxy)amino]propyl-2-[(2-quinolinylcarbonyl)amino]butanediamide], for which the Ki in test [1] is below 1 nM. Also, in test [2], the IC50 is 100 to 500 nM.
